Assay results reported in patent US20210139947A1, “METHOD FOR ASSESSING SUSCEPTIBILITY OF A VIRUS TO TREATMENT BY MEASURING ENZYME ACTIVITY AND A SYSTEM THEREFORE” (priority 2017, published 2021).
Like-named read-outs stand apart in the source and are kept apart here.

How the values were obtained:
[1] = test system: FIV RT, Cell culture virus M2 CladB; assay: Drug resistance indicator assay, remaining RT activity; assay type: biochemical
Description: (§1) The RT extracts recovered from this process and the other RT samples were analyzed for remaining activity according to above described drug resistance indicator assay.

[2] = test system: PERV RT, Cell culture virus PERV-PK15; assay: as above; conditions: EFV 9.0 μM, 6 mM Mn2+
Description: Virus culture supernatant was cleared from cell debris by centrifugation, aliquoted and stored at −70° C. until use
(§5) Drug reaction solution: A buffer identical to above mentioned RT Reaction solution with a defined concentration of an antiviral drug added.
All buffers used for analysis of γ-retroviruses RTs were supplemented with 6 mM Mn2+, but were otherwise identical to the buffers described above.
(§6) Each lysate is split into two aliquots, one whereof is added to a well containing drug at a predetermined concentration, and one whereof is added to a well without added drug. Apart from the lysates, said HIV drug susceptibility reference samples are also included in the assay.
(§7) The virus susceptibility to treatment with the drug can be determined from the relation between the enzyme activities in the presence and in absence of the drug. This can be expressed as percent remaining RT activity, i.e. the quota between signal in presence of drug and signal in absence of drug times 100.

[3] = test system: HIV-2 RT, Cell culture virus CRF01_AB; assay: as above; conditions: EFV 9.0 μM; HIV-2 CRF01_AB
[4] = test system: RT extracted from HIV-1 C Plasma Sa147 K103N, E138Q, Y318F, M184V; assay: as above; assay type: biochemical
Description: (§2) Isolation of HIV is performed in a separation plate, a 96 deep-well microplate (well volume 2 ml). The Viral Load assay is started by addition of 40 μl sample additive e.g 5,5′-dithiobis-(2-nitrobenzoic acid) to each well (see FIG. 2). Thereafter the patient plasmas and control samples are added. Sample additive is mixed with the plasma prior to isolation of HIV for inactivation of certain enzymes present in the plasma. After 20 minutes incubation, a slurry containing 1 μm magnetic polymeric beads, is added to the wells. The positively charged beads are used to capture the HIV particles. At low pH (e.g. 5.5) and appropriate salt concentration the negatively charged HIV particles bind to the beads while most of the other components present in plasma will not bind, e.g. the proteins (antibodies) and anti-retroviral drugs (ARVs). After an additional five minutes incubation, the microwell plate is transported to a magnetic plate. When exposed to the magnetic field from the magnetic plate, the beads will be trapped to the walls of the wells. The plasma can then be removed by aspiration using a pipette. The separation plate is then transported back to the shaker, away from the magnetic plate.
(§3) The wash procedure (see FIG. 3) starts by adding a first wash buffer, the Bead Wash Buffer, and the entire separation plate will be shaken during three minutes to resuspend the beads. After that, the separation plate is moved to the magnetic plate where the beads will be exposed to the magnetic field and trapped to the walls of the wells. Next, the wash buffer is aspirated. The separation plate is then transported back to the shaker, away from the magnetic plate. In the current example, this wash procedure is repeated three times with the Bead Wash Buffer (referred to as “Wash solution 1” in FIG. 3) and one time with the second wash buffer, the so called Bead Reconditioning Buffer (referred to as “Wash solution 2” in FIG. 3).
(§4) The reverse transcriptase (RT) is now to be extracted from the viral particles, which is illustrated in FIG. 4. The HIV particle is composed of a protein core surrounded by a lipid bilayer envelope that will break if it is exposed to certain detergents. Once the lipid bilayer envelope is dissolved, the protein core falls apart and the RT inside is released. When the last wash step is finalized, lysis buffer containing e. g. the detergent Synperonic A11 is added to the wells, in FIG. 4 referred to as “lysis buffer”. The virus envelope breaks and the reverse transcriptase, RT, is released. With the magnetic beads still bound to the walls of the wells, the lysate containing the released RT is collected by aspiration and used in the subsequent RT reaction step.

[5] = test system: RT extracted from HIV-1 C Plasma Sa72 wild type; assay: as above; assay type: biochemical
Description: as §2, §3, §4

[6] = test system: HTLV-1 RT, Cell culture virus MT-2 Cells; assay: as above; conditions: EFV 9.0 μM
[7] = biological target: T1, SIV Recombinant RT SIVsmH4 (Simian immunodeficiency virus, UniProt P12502); assay: as above; assay type: biochemical; conditions: for remaining activity at 9 µM: EFV 9.0 μM
T1 construct: The recombinantly expressed and purified SIV RT was derived from the molecular clone pSIVsm/H4; made in house; host or cells: E. coli BL21 (DE3), vector pSRT.ET 11c
T1 sequence (P12502 598-1156 limits assumed): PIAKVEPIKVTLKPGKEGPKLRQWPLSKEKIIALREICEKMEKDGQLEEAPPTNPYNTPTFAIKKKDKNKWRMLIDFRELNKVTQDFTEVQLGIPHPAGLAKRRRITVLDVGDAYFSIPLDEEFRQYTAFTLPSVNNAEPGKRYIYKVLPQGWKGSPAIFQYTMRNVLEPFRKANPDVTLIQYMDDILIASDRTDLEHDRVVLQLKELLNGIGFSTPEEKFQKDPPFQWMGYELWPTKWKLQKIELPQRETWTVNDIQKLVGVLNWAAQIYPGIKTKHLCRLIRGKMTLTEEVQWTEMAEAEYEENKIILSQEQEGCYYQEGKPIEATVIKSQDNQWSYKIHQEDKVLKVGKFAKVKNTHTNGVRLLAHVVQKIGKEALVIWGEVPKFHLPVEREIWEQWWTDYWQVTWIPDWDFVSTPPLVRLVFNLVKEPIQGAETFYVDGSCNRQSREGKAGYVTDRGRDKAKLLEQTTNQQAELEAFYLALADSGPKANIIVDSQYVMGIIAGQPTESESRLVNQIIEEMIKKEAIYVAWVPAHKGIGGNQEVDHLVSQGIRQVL
Description: The recombinantly expressed and purified SIV RT was derived from the molecular clone pSIVsm/H4. An expression vector pSRT.ET 11c was constructed and expression of SIV-RT in E. coli strain BL21 (DE3) in ordinary LB medium was carried out. The enzyme was purified in three chromatographic steps on a Heparin Sepharose CL-6B column, a Sepharose FF column and a Phenyl Sepharose CL-4B column.
as §1

[8] = test system: BLV RT, Cell culture virus FLK-BLV cells; assay: as above; conditions: EFV 9.0 μM
Description: (This cell line is chronically infected by BLV).
as §5, §6, §7

[9] = test system: 69SG + 5M Recombinant RT HXB2 M41L,T69S-SG, L210W, R211K, L214F, T215Y; assay: as above; conditions: EFV 9.0 μM
Description: as §5, §6, §7

[10] = test system: Mammalian γ -polymerase, mithochondria, Beef Heart; assay: Drug resistance indicator assay, remaining polymerase activity; conditions: EFV 9.0 μM
Description: as §5, §6, §7

[11] = test system: 69SS + 5M Recombinant RT HXB2 M41L,T69S-SS, L210W, R211K, L214F, T215Y; assay: Drug resistance indicator assay, remaining RT activity; conditions: EFV 9.0 μM
Description: as §5, §6, §7

[12] = biological target: HTLV-2 RT, Cell culture virus (Human T-cell leukemia virus 2, UniProt P03363); assay: as above
Chain of HTLV-2 RT, Cell culture virus (P03363 580-1166): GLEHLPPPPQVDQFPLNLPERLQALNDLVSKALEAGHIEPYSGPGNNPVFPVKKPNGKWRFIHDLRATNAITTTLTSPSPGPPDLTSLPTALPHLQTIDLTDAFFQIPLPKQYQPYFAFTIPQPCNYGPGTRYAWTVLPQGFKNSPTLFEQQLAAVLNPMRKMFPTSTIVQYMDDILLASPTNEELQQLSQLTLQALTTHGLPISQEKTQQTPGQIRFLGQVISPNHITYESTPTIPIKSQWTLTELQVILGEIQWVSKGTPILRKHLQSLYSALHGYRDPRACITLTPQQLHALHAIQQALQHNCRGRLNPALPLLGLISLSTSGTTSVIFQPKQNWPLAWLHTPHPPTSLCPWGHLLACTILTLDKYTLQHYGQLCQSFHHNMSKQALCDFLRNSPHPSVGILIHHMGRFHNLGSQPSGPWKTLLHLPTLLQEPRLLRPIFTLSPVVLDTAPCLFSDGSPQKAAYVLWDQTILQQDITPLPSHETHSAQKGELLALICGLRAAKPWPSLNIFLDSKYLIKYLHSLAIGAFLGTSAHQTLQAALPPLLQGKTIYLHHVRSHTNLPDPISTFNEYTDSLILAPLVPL
Description: as §5
Each lysate is split into two aliquots, one whereof is added to a well containing drug at a predetermined concentration, and one whereof is added to a well without added drug.
as §7

[13] = biological target: T2, MMTV Recombinant RT BR6 strain (Mouse mammary tumor virus, UniProt P03365); assay: as above
T2 sequence (P03365 861-1436 limits assumed): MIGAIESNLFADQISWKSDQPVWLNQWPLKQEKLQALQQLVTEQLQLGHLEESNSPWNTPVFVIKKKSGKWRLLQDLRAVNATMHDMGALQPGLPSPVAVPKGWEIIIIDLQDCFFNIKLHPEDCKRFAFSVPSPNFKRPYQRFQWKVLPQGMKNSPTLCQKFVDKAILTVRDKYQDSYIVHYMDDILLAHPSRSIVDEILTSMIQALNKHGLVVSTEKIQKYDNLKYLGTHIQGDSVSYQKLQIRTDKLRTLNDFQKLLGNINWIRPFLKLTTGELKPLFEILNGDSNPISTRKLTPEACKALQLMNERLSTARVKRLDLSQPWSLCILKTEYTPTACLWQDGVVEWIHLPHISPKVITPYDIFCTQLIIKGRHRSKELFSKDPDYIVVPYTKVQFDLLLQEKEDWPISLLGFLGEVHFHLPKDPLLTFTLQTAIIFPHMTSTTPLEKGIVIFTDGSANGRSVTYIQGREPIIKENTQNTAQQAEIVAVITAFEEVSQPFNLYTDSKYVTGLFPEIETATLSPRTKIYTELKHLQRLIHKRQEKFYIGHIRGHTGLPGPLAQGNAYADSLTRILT
Description: as §5, §6, §7

[14] = test system: JSRV RT, Cell culture virus UK strain; assay: as above; conditions: EFV 9.0 μM
Description: as §5, §6, §7

[15] = biological target: T3, HIV-1 B Recombinant RT BH10 wild type (Human immunodeficiency virus type 1 group M subtype B, UniProt P03366); assay: biochemical; conditions: read-out: Remaining activity (% of actvity in absence of drug)
T3 construct: His-tag (C); made in house; host or cells: E. coli BL21 (DE3); plasmid purchased from Genescript
Description: as §1

[16] = biological target: HIV-1 B Recombinant RT HXB2 wild type (Human immunodeficiency virus type 1 group M subtype B, UniProt P04585); assay: biochemical; conditions: read-out: Remaining activity (% of actvity in absence of drug)
Description: as §1

In the case of `O=C1Nc2ccc(Cl)cc2[C@@](C#CC2CC2)(C(F)(F)F)O1` [EFV, (−)6-chloro-4-cyclopropylethynyl-4-trifluoromethyl-I,4-dihydro-2H-3,1-benzoxazin-2-one], the “Remaining activity (% of actvity in absence of drug)” value ([1]; EFV 9.0 μM) was 93.6%, the “Remaining activity (%)” value ([1]; EFV 9.0 μM) was 93.6% and the “Remaining activity (%)” value [2] was 98.0%. For the same compound, the “Remaining activity (%)” value [3] was 100.2%, the “Remaining activity (% of actvity in absence of drug)” value ([4]; EFV 9.0 μM) was 87.8% and the “Remaining activity (% of actvity in absence of drug)” value ([5]; EFV 9.0 μM) was 8.3%. For the same compound, the “Remaining activity (%)” value [6] was 93.8%, the remaining activity at 9 µM ([7]; SIVsmH4, read-out: Remaining activity (% of actvity in absence of drug)) was 99.9% and the remaining activity at 9 µM ([7]; SIVsmH4, read-out: Remaining activity (%)) was 103%. The “Remaining activity (%)” value [8] was 101.7%, the “Remaining activity (%)” value [9] was 3.9% and the “Remaining activity (%)” value [10] was 94.8%. For the same compound, the “Remaining activity (%)” value [11] was 3.5%, the remaining activity at 9 µM [12] was 91.7% and the remaining activity at 9 µM [13] was 102%. For the same compound, the “Remaining activity (%)” value [14] was 102.7%.

In the case of `Cc1cc(C#N)cc(C)c1Oc1nc(Nc2ccc(C#N)cc2)nc(N)c1Br` [ETV, 4-({6-amino-5-bromo-2-[(4-cyanophenyl)amino]pyrimidin-4-yl}oxy)-3,5-dimethylbenzonitrile], the “Remaining activity (% of actvity in absence of drug)” value ([1]; ETV 21.8 μM) was 90.6%, the “Remaining activity (% of actvity in absence of drug)” value ([4]; ETV 21.8 μM) was 68.0% and the “Remaining activity (% of actvity in absence of drug)” value ([5]; ETV 21.8 μM) was 6.5%. For the same compound, the remaining activity at 21.8 µM ([7]; ETV 21.8 μM, SIVsmH4, read-out: Remaining activity (% of actvity in absence of drug)) was 98.5%, the remaining activity at 21.8 µM [15] was 3.5% and the remaining activity at 21.8 µM [16] was 2.8%.

With `Cc1ccnc2c1NC(=O)c1cccnc1N2C1CC1` [NPV, 11-cyclopropyl-5,11-dihydro-4-methyl-6H-dipyrido[3,2-b:2′,3′-f][1,4]diazepin-6-one] the “Remaining activity (% of actvity in absence of drug)” value ([1]; NPV 81.0 μM) was 87.7%, the “Remaining activity (% of actvity in absence of drug)” value ([4]; NPV 81.0 μM) was 94.9% and the “Remaining activity (% of actvity in absence of drug)” value ([5]; NPV 81.0 μM) was 16.1%. For the same compound, the remaining activity at 81 µM ([7]; read-out: Remaining activity (% of actvity in absence of drug)) was 99.5%, the remaining activity at 81 µM [15] was 3.4% and the remaining activity at 81 µM [16] was 8.1%.

With `Cc1cc(/C=C/C#N)cc(C)c1Nc1ccnc(Nc2ccc(C#N)cc2)n1` [RPV, 4-{[4-({4-[(1E)-2-cyanoeth-1-en-1-yl]-2,6-dimethylphenyl}amino)pyrimidin-2-yl]amino}benzonitrile] the “Remaining activity (% of actvity in absence of drug)” value ([1]; RPV 12.0 μM) was 86.1%, the “Remaining activity (% of actvity in absence of drug)” value ([4]; RPV 12.0 μM) was 80.8% and the “Remaining activity (% of actvity in absence of drug)” value ([5]; RPV 12.0 μM) was 9.3%. The remaining activity at 12 µM ([7]; RPV 12.0 μM, SIVsmH4, read-out: Remaining activity (% of actvity in absence of drug)) was 108%, the remaining activity at 12 µM ([15]; RPV 12.0 μM, BH10 wild type) was 2.5% and the remaining activity at 12 µM ([16]; RPV 12.0 μM, HXB2 wild type) was 2.4%.
